Marks after values point to notes of the source that are not given here.
Columns and labels:
[1] = test system: LDL isolated from human plasma; experiment: TBARS assay, AAPH-induced LDL oxidation; assay type: biochemical
Experimental: (§1) To remove the inherent antioxidants, purchased LDL was dialyzed using Fisherbrand cellulose dialysis tubing (type T3 membrane, Thermo Fisher Scientific Inc., Ottawa, ON, Canada) against PBS containing 0.138 M NaCl and 0.0027 M KCl (pH 7.4, at 25° C.) at 4° C. for 24 hours. The buffer was changed every six hours. The dialyzed LDL was immediately used or stored at −80° C. in the dark under nitrogen and used within two to three weeks. Protein content of the dialyzed LDL was measured by the Lowry's method (Lowry et al., J. Biol. Chem., 1951, 193: […]) using bovine serum albumin as the standard.
(§2) Two oxidation induction methods were used: copper sulfate and 2,2′-azobis(2-methylpropionamidine)dihydrochloride (AAPH). For both induction systems, 100 μg/mL of final LDL protein concentration was used. LDL was oxidized at the presence of 10 μM final concentration of Cu^2+and 5 mM final concentration of AAPH separately at 37° C. for 4 h in the dark. […] Oxidation was terminated by adding a 1:1 mixture of 1 mM solution of ethylenediaminetetraacetic acid (EDTA) and 1 mM solution of butylated hydroxytoluene (BHT).
(§3) Two main constituents of TAE and oleanolic acid, which is an isomer of ursolic acid, were also used to investigate the concentration-responsiveness. The same concentrations of Cu^2+ and AAPH were used and the oxidation was terminated by a 1:1 mixture of EDTA and BHT as explained earlier under this section.
(§4) TBARS were measured according to the method of Xu et al., J. Food Sci., 2007, 72: S522-S527 with slight modifications. […] The mixture was incubated at 95° C. for 30 min to develop a pink chromogen. After cooling to room temperature tubes were centrifuged at 1500 g for 15 min and the fluorescence was measured using the FLUOstar OPTIMA plate reader (BMG Labtech Inc. Canada). Excitation and emission wavelengths used were 532 and 590 nm, respectively. TBARS activity was expressed as the percent inhibition (Equation 1) of LDL oxidation with comparison to the positive control, where F is fluorescence:
(§5) Percent inhibition (%)=100(Fpositive control−Fsample)/(Fpositive control) (1)

[2] = test system: LDL isolated from human plasma; experiment: TBARS assay, Cu2+-induced LDL oxidation; assay type: biochemical
Experimental: as §1, §2, §3, §4, §5

[3] = 50 mg L^−1, comparison of constituent compounds and metabolites (Table 4)

SMILES	Percent inhibition of secondary LDL oxidation products, AAPH induction [1, 3]	Percent inhibition of secondary LDL oxidation products, Cu induction [2, 3]	Percent inhibition of secondary LDL oxidation products, AAPH induction ([1]; 1 mg L^−1)	Percent inhibition of secondary LDL oxidation products, AAPH induction ([1]; 10 mg L^−1)	Percent inhibition of secondary LDL oxidation products, AAPH induction ([1]; 50 mg L^−1)	Percent inhibition of secondary LDL oxidation products, AAPH induction ([1]; 100 mg L^−1)	Percent inhibition of secondary LDL oxidation products, AAPH induction ([1]; 200 mg L^−1)	Percent inhibition of secondary LDL oxidation products, AAPH induction ([1]; 300 mg L^−1)	Percent inhibition of secondary LDL oxidation products, AAPH induction ([1]; 400 mg L^−1)	Percent inhibition of secondary LDL oxidation products, AAPH induction ([1]; 500 mg L^−1)	Percent inhibition of secondary LDL oxidation products, Cu induction ([2]; 1 mg L^−1)	Percent inhibition of secondary LDL oxidation products, Cu induction ([2]; 10 mg L^−1)	Percent inhibition of secondary LDL oxidation products, Cu induction ([2]; 50 mg L^−1)	Percent inhibition of secondary LDL oxidation products, Cu induction ([2]; 100 mg L^−1)	Percent inhibition of secondary LDL oxidation products, Cu induction ([2]; 200 mg L^−1)	Percent inhibition of secondary LDL oxidation products, Cu induction ([2]; 300 mg L^−1)	Percent inhibition of secondary LDL oxidation products, Cu induction ([2]; 400 mg L^−1)	Percent inhibition of secondary LDL oxidation products, Cu induction ([2]; 500 mg L^−1)	further results
OC[C@H]1O[C@@H](Oc2cc3c(O)cc(O)cc3[o+]c2-c2ccc(O)c(O)c2)[C@H](O)[C@@H](O)[C@H]1O [Cyanidin-3-O-galactoside]	70.43 ± 1.23^d %	104.31 ± 2.25^ab %	–	–	–	–	–	–	–	–	–	–	–	–	–	–	–	–	Cu2+-induced LDL oxidation (statement) ([2]; 50 mg L^−1): promising results
O=C(/C=C/c1ccc(O)c(O)c1)O[C@@H]1C[C@](O)(C(=O)O)C[C@@H](O)[C@H]1O [Chlorogenic acid]	100.18 ± 3.29^b %	126.30 ± 1.45^a %	–	–	–	–	–	–	–	–	–	–	–	–	–	–	–	–	–
COc1cc(-c2oc3cc(O)cc(O)c3c(=O)c2OC2OC(C(=O)O)C(O)C(O)C2O)ccc1O (stereo not drawn) [Isorhamnetin-3-glucuronic acid]	51.79 ± 1.27^e %	20.28 ± 1.49^e %	–	–	–	–	–	–	–	–	–	–	–	–	–	–	–	–	–
C[C@H]1[C@H](C)CC[C@]2(C(=O)O)CC[C@]3(C)C(=CC[C@@H]4[C@@]5(C)C[C@@H](O)[C@H](O)C(C)(C)[C@@H]5CC[C@]43C)[C@H]12 [Corosolic acid]	–	–	6.09 ± 1.83^d %	5.69 ± 1.46^d %	32.80 ± 5.49^bc %	29.84 ± 2.89^c %	45.49 ± 3.46^ab %	47.55 ± 1.17^a %	51.18 ± 1.73^a %	46.63 ± 3.91^a %	−17.84 ± 5.15^ab %	3.17 ± 4.20^a %	−6.04 ± 3.62^ab %	−24.94 ± 2.90^be %	−54.17 ± 5.21^d %	−49.93 ± 3.74^d %	−39.57 ± 3.91^cd %	−0.50 ± 5.98^a %	AAPH-induced LDL oxidation inhibition ([1]; greater than 200 mg L^−1): more than 40%; Protection against Cu2+-induced LDL oxidation (statement) [2]: did not show any protection
O=c1c(O)c(-c2ccc(O)c(OS(=O)(=O)O)c2)oc2cc(O)cc(O)c12 [Quercetin-3′-sulfate]	59.63 ± 1.90^e %	38.11 ± 1.84^de %	–	–	–	–	–	–	–	–	–	–	–	–	–	–	–	–	–
O=c1c(O[C@@H]2O[C@H](CO)[C@@H](O)[C@H](O)[C@H]2O)c(-c2ccc(O)c(O)c2)oc2cc(O)cc(O)c12 [Quercetin-3-O-glucoside]	138.25 ± 1.97^a %	104.13 ± 0.48^ab %	–	–	–	–	–	–	–	–	–	–	–	–	–	–	–	–	–
CC1(C)CC[C@]2(C(=O)O)CC[C@]3(C)C(=CC[C@@H]4[C@@]5(C)CC[C@H](O)C(C)(C)[C@@H]5CC[C@]43C)[C@@H]2C1 [Oleanolic acid]	–	–	17.57 ± 8.28^b %	31.90 ± 0.95^ab %	37.43 ± 1.98^a %	30.69 ± 3.22^ab %	16.75 ± 4.41^b %	26.13 ± 3.09^ab %	26.20 ± 4.41^ab %	29.17 ± 1.58^ab %	12.06 ± 2.46^a %	−3.01 ± 3.42^ab %	12.30 ± 2.73^a %	−13.37 ± 5.59^b %	−47.00 ± 3.05^c %	−94.49 ± 4.34^d %	−74.73 ± 5.82^d %	−78.32 ± 4.31^d %	Protection for AAPH-induced LDL oxidation ([1]; 10-100 mg L^−1): around 30%
C[C@H]1[C@H](C)CC[C@]2(C(=O)O)CC[C@]3(C)C(=CC[C@@H]4[C@@]5(C)CC[C@H](O)C(C)(C)[C@@H]5CC[C@]43C)[C@H]12 [Ursolic acid]	–	–	−16.71 ± 1.72^d %	−16.51 ± 2.32^d %	24.25 ± 2.54^c %	54.07 ± 2.88^b %	49.91 ± 3.26^b %	71.45 ± 5.14^a %	54.20 ± 2.50^b %	46.52 ± 2.39^b %	7.10 ± 1.52^c %	−5.10 ± 0.69^d %	19.08 ± 2.59^c %	16.73 ± 1.49^c %	36.62 ± 5.69^a %	34.93 ± 5.08^ab %	42.45 ± 1.02^a %	39.63 ± 3.85^a %	Concentration giving a greater protection against AAPH-induced LDL oxidation [1]: 300 mg/L; Inhibiting peroxyl-radical-induced LDL oxidation compared to corosolic and oleanolic acids (statement) [1]: more effective; Protection for AAPH-induced LDL oxidation ([1]; beyond 100 mg L^−1): more than 40%; Protection against Cu2+-induced LDL oxidation (statement) [2]: a certain degree of protection

Source: US20130165396A1, “Apple Skin Extracts for Treating Cardiovascular Disease” (NATIONAL RESEARCH COUNCIL OF CANADA, priority 2010, published 2013)
